Test results taken from patent publication US8138168B1 (Takeda Pharmaceutical Company Limited, priority 2007, dated 2012).

What follows are compounds tested against T1, Recombinant human renin (Homo sapiens, UniProt P00797) (assay: In vitro enzymatic activity assay of renin inhibitors (fluorogenic peptide substrate)). Conditions: not given.
T1 construct: isolate the active form (residues 67-406); made in house; host or cells: FreeStyle 293-F cells (transient expression of pcDNA3.1(+)/hREN)
T1 sequence (P00797 67-406): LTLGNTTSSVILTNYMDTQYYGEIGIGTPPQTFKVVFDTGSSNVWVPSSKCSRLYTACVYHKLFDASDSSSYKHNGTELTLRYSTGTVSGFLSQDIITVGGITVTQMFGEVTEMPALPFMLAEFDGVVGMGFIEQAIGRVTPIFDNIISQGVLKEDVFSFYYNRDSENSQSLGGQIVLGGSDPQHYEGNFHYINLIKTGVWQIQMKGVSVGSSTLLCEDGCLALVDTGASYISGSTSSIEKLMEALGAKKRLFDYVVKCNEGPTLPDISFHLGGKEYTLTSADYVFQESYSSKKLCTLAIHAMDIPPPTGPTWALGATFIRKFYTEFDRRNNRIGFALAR
Type: biochemical
Method: Test compounds in varying concentrations may be reacted with recombinant human renin in the presence of substrate, e.g., QXL520-γ-Abu-[…](HiLyteFluo488)-Arg-OH (Anaspec, San Jose, Calif.). […] Inhibition constants (IC50) may be calculated by non-linear curve fitting of the compound concentrations and fluorescence intensities to the standard IC50 equation.
Solutions of test compounds in varying concentrations mM final concentration) are prepared in dimethyl sulfoxide (DMSO) and then diluted into assay buffer comprising 50 mM Hepes, 1 mM EDTA, 1 mM DTT, 0.1 mg/mL BSA, 0.01% Brij35, pH 7.4. Alternatively, the assay can be performed with a high BSA concentration, wherein the buffer contains an additional 2% BSA.
Recombinant human renin (3 nM final concentration) is added to the dilutions and pre-incubated with the compounds for 10 minutes at 37° C. […] After pre-incubation, the reaction is initiated with of substrate QXL520-γ-Abu-[…](HiLyteFluo488)-Arg-OH (Anaspec, San Jose, Calif.). The final DMSO in the assay is 5%. The total volume of the reaction mixture is 20 μL, which can be placed on Greiner 384-well small volume plates.
The fluorescence intensity is determined upon the addition of substrate and determined again after incubation at 37° C. for one hour. The fluorescence intensity of a blank (no inhibition) using vehicle alone is also determined. Renin activity is linearly proportional to the change in fluorescence observed (final-initial).

**Q.** Which IC50 does the source give for `COCCCn1c([C@@H]2CCCN(C(=O)[C@@H]3CN(C(=O)Oc4ccccc4Cl)C[C@H]3N)C2)nc2ccccc21` [Compound 390, (3S,4R)-2-chlorophenyl 3-amino-4-((R)-3-(1-(3-methoxypropyl)-1H-benzo[d]imidazol-2-yl)piperidine-1-carbonyl)pyrrolidine-1-carboxylate] here?
**A.** > 1000 nM

Same assay, conditions: read-out: IC50 of Exemplified Compounds Against Renin

**Q.** Which IC50 does the source give for `COCCCn1c([C@@H]2CCCN(C(=O)C[C@H](N)Cc3ccc(-c4ccccc4)cc3)C2)nc2ccncc21` [Compound 103, (R)-3-amino-4-(biphenyl-4-yl)-1((R)-3-(3-(3-methoxypropyl)-3H-imidazo[4,5-c]pyridin-2-yl)piperidin-1-yl)butan-1-one] here?
**A.** > 1000 nM

**Q.** `COCCCn1c([C@@H]2CCCN(C(=O)[C@H](Cc3ccccc3)C(N)Cc3ccc(Cl)cc3)C2)nc2ccccc21` (stereo partly drawn) [Compound 240, (R)-3-amino-2-benzyl-4-(4-chlorophenyl)-1-((R)-3-(1-(3-methoxypropyl)-1H-benzo[d]imidazol-2-yl)piperidin-1-yl)butan-1-one] was tested. Which IC50 did it give?
**A.** > 1000 nM

**Q.** `COCCCn1c([C@@H]2CCCN(C(=O)[C@@H]3CN(S(=O)(=O)c4ccc5c(ccn5C)c4)C[C@H]3N)C2)nc2ccccc21` [Compound 360, ((3R,4S)-4-amino-1-(1-methyl-1H-indol-5-ylsulfonyl)pyrrolidin-3-yl)((R)-3-(1-(3-methoxypropyl)-1H-benzo[d]imidazol-2-yl)piperidin-1-yl)methanone] was tested. Which IC50 did it give?
**A.** 100 to 1000 nM

**Q.** With `COCCCn1c([C@@H]2CCCN(C(=O)C[C@H](N)CNC(=O)c3ccc(-c4ccccc4)o3)C2)nc2ccccc21` [Compound 251, N-((S)-2-amino-4-((R)-3-(1-(3-methoxypropyl)-1H-benzo[d]imidazol-2-yl)piperidin-1-yl)-4-oxobutyl)-5-phenylfuran-2-carboxamide] as the compound, how does the IC50 read?
**A.** < 100 nM

**Q.** With `COCCCn1c([C@@H]2CCCN(C(=O)[C@@H]3CN(S(=O)(=O)c4ccccc4)C[C@H]3N)C2)nc2ccccc21` [Compound 384, ((3R,4S)-4-amino-1-(phenylsulfonyl)pyrrolidin-3-yl)((R)-3-(1-(3-methoxypropyl)-1H-benzo[d]imidazol-2-yl)piperidin-1-yl)methanone] as the compound, how does the IC50 read?
**A.** > 1000 nM

**Q.** For `COCCCn1c([C@@H]2CCCN(C(=O)C[C@H](N)CNC(=O)NC3CCCCC3)C2)nc2ccccc21` [Compound 323, 1-((S)-2-amino-4-((R)-3-(1-(3-methoxypropyl)-1H-benzo[d]imidazol-2-yl)piperidin-1-yl)-4-oxobutyl)-3-cyclohexylurea], which IC50 is on record?
**A.** > 1000 nM

**Q.** For `CCOC(=O)c1ccccc1NC(=O)NC[C@@H](N)CC(=O)N1CCC[C@@H](c2nc3ccccc3n2CCCOC)C1` [Compound 330, ethyl 2-(3-((S)-2-amino-4-((R)-3-(1-(3-methoxypropyl)-1H-benzo[d]imidazol-2-yl)piperidin-1-yl)-4-oxobutyl)ureido)benzoate], which IC50 is on record?
**A.** > 1000 nM

**Q.** Which IC50 does the source give for `COCCCn1c([C@@H]2CCCN(C(=O)C[C@H](N)CNS(=O)(=O)c3ccccc3)C2)nc2ccccc21` [Compound 316, N-((S)-2-amino-4-((R)-3-(1-(3-methoxypropyl)-1H-benzo[d]imidazol-2-yl)piperidin-1-yl)-4-oxobutyl)benzenesulfonamide] here?
**A.** 100 to 1000 nM

**Q.** `Cc1cccc(C[C@@H](N)CC(=O)N2CCCC(c3nc4ccccc4[nH]3)C2)c1` (stereo partly drawn) [Compound 43, (3R)-1-(3-(1H-benzo[d]imidazol-2-yl)piperidin-1-yl)-3-amino-4-m-tolylbutan-1-one] was tested. Which IC50 did it give?
**A.** > 1000 nM

**Q.** `COC(=O)[C@H](Cc1ccccc1)NC(=O)N1CCCC(c2nc3ccccc3[nH]2)C1` (stereo partly drawn) [Compound 12, (2S)-methyl 2-(3-(1H-benzo[d]imidazol-2-yl)piperidine-1-carboxamido)-3-phenylpropanoate] was tested. Which IC50 did it give?
**A.** > 1000 nM

**Q.** For `COCCCn1c([C@@H]2CCCN(C(=O)C[C@H](N)c3cccc(C#N)c3)C2)nc2ccccc21` [Compound 85, 3-((S)-1-amino-3-((R)-3-(1-(3-methoxypropyl)-1H-benzo[d]imidazol-2-yl)piperidin-1-yl)-3-oxopropyl)benzonitrile], which IC50 is on record?
**A.** > 1000 nM

**Q.** How did the IC50 turn out when `COCCCn1c([C@@H]2CCCN(C(=O)C[C@H](N)Cc3ccc(-c4ccc(C(=O)NCCO)nc4)cc3)C2)nc2ccccc21` [Compound 194, 5-(4-((R)-2-Amino-4-((R)-3-(1-(3-methoxypropyl)-1H-benzo[d]imidazol-2-yl)piperidin-1-yl)-4-oxobutyl)phenyl)-N-(2-hydroxyethyl)picolinamide] was run?
**A.** < 100 nM

**Q.** How did the IC50 turn out when `NC(=O)CCn1c([C@@H]2CCCN(C(=O)C[C@H](N)Cc3ccc(-c4ccncc4)cc3)C2)nc2ccccc21` [Compound 488, 3-(2-((R)-1-((R)-3-amino-4-(4-(pyridin-4-yl)phenyl)butanoyl)piperidin-3-yl)-1H-benzo[d]imidazol-1-yl)propanamide] was run?
**A.** 100 to 1000 nM

**Q.** `COCCCn1c([C@@H]2CCCN(C(=O)[C@@H]3CN(S(=O)(=O)c4ccc(C(C)(C)C)cc4)C[C@H]3N)C2)nc2ccccc21` [Compound 374, ((3R,4S)-4-amino-1-(4-tert-butylphenylsulfonyl)pyrrolidin-3-yl)((R)-3-(1-(3-methoxypropyl)-1H-benzo[d]imidazol-2-yl)piperidin-1-yl)methanone] was tested. Which IC50 did it give?
**A.** 100 to 1000 nM

**Q.** How did the IC50 turn out when `COCCCn1c([C@@H]2CCCN(C(=O)C[C@H](N)CNC(=O)c3ccc4ccccc4c3)C2)nc2ccccc21` [Compound 249, N-((S)-2-amino-4-((R)-3-(1-(3-methoxypropyl)-1H-benzo[d]imidazol-2-yl)piperidin-1-yl)-4-oxobutyl)-2-naphthamide] was run?
**A.** < 100 nM

**Q.** With `COCCCn1c([C@@H]2CCCN(C(=O)[C@@H]3CN(S(=O)(=O)c4cc(C)ccc4C#N)C[C@H]3N)C2)nc2ccccc21` [Compound 403, 2-((3S,4R)-3-amino-4-((R)-3-(1-(3-methoxypropyl)-1H-benzo[d]imidazol-2-yl)piperidine-1-carbonyl)pyrrolidin-1-ylsulfonyl)-4-methylbenzonitrile] as the compound, how does the IC50 read?
**A.** > 1000 nM

**Q.** For `COCCCn1c([C@@H]2CCCN(C(=O)C[C@H](N)Cc3ccc(N4CCCC4=O)cc3)C2)nc2ccccc21` [Compound 209, 1-(4-((R)-2-amino-4-((R)-3-(1-(3-methoxypropyl)-1H-benzo[d]imidazol-2-yl)piperidin-1-yl)-4-oxobutyl)phenyl)pyrrolidin-2-one], which IC50 is on record?
**A.** 100 to 1000 nM

**Q.** With `NC(=O)CCn1c([C@@H]2CCCN(C(=O)C[C@H](N)Cc3ccc(-c4ccc(Cl)cc4)cc3)C2)nc2ccccc21` [Compound 489, 3-(2-((R)-1-((R)-3-amino-4-(4′-chlorobiphenyl-4-yl)butanoyl)piperidin-3-yl)-1H-benzo[d]imidazol-1-yl)propanamide] as the compound, how does the IC50 read?
**A.** > 1000 nM

**Q.** Which IC50 does the source give for `CC(C)[C@H](N)C(=O)N1CCCC(c2nc3ccccc3[nH]2)C1` (stereo partly drawn) [Compound 47, (2S)-1-(3-(1H-benzo[d]imidazol-2-yl)piperidin-1-yl)-2-amino-3-methylbutan-1-one] here?
**A.** > 1000 nM

**Q.** For `COCCCn1c([C@@H]2CCCN(C(=O)[C@@H]3CN(C(=O)Nc4ccccc4)C[C@H]3N)C2)nc2ccccc21` [Compound 404, (3S,4R)-3-amino-4-((R)-3-(1-(3-methoxypropyl)-1H-benzo[d]imidazol-2-yl)piperidine-1-carbonyl)-N-phenylpyrrolidine-1-carboxamide], which IC50 is on record?
**A.** > 1000 nM

**Q.** Which IC50 does the source give for `COCCCn1c([C@@H]2CCCN(C(=O)C[C@H](N)Cc3ccc(-c4ccc(OC(C)C)nc4)cc3)C2)nc2ccccc21` [Compound 142, (R)-3-amino-4-(4-(6-isopropoxypyridin-3-yl)phenyl)-1-((R)-3-(1-(3-methoxypropyl)-1H-benzo[d]imidazol-2-yl)piperidin-1-yl)butan-1-one] here?
**A.** < 100 nM

**Q.** Which IC50 does the source give for `COCCCn1c([C@@H]2CCCN(C(=O)C[C@H](N)CNC(=O)c3ccc4c(c3)CCO4)C2)nc2ccccc21` [Compound 271, N-((S)-2-amino-4-((R)-3-(1-(3-methoxypropyl)-1H-benzo[d]imidazol-2-yl)piperidin-1-yl)-4-oxobutyl)-2,3-dihydrobenzofuran-5-carboxamide] here?
**A.** 100 to 1000 nM

**Q.** With `COCCCn1c([C@@H]2CCCN(C(=O)C[C@H](N)CNC(=O)c3ccc(-c4cccc(Cl)c4)o3)C2)nc2ccccc21` [Compound 296, N-((S)-2-amino-4-((R)-3-(1-(3-methoxypropyl)-1H-benzo[d]imidazol-2-yl)piperidin-1-yl)-4-oxobutyl)-5-(3-chlorophenyl)furan-2-carboxamide] as the compound, how does the IC50 read?
**A.** 100 to 1000 nM

**Q.** `CC(=O)NCCn1c([C@@H]2CCCN(C(=O)C[C@H](N)Cc3ccc(-c4ccc5c(c4)OCCO5)cc3)C2)nc2c(C)cccc21` [Compound 477, N-(2-(2-((R)-1-((R)-3-amino-4-(4-(2,3-dihydrobenzo[b][1,4]dioxin-6-yl)phenyl)butanoyl)piperidin-3-yl)-4-methyl-1H-benzo[d]imidazol-1-yl)ethyl)acetamide] was tested. Which IC50 did it give?
**A.** 100 to 1000 nM
